Several values for one entry are separate records, joined by “and”; a condition that tells them apart may be missing. Identical values can stand only once. Like-named read-outs stand apart in the source and are kept apart here.
How the values were obtained:
Mtb Erdman [1] = test: Semi-quantitative MBC (sqMBC) assay; assay type: cell-based, Mycobacterium tuberculosis; conditions: M. tuberculosis Erdman; for sqMBC: 10 d incubation, 99% (2-log10) CFU reduction of inoculum; for sqMBC + huSA: with 4% huSA
Mtb Erdman [2] = test: In vitro kill kinetics under replicating conditions; assay type: cell-based, Mycobacterium tuberculosis; conditions: 8× and 20× MIC, CFU/mL over 14 days
[3] = system: non-replicating Mtb in rabbit caseum; test: Explanted rabbit caseum MBC assay; assay type: cell-based, Mycobacterium tuberculosis; conditions: test concentrations up to 512 µM, 7 days
Mtb Erdman [4] = test: Efficacy in lungs of Mtb Erdman-infected C3HeB/FeJ mice (CFU, kill rates); assay type: in vivo, Mycobacterium tuberculosis; conditions: for kill rate k[0-28] (SE), lungs, Type I (TI) subset / kill rate k[0-56] (SE), lungs, Type I (TI) subset / kill rate k[28-56] (SE), lungs, Type I (TI) subset: TI lesions; for kill rate k[0-28] (SE), lungs, Type III (TIII) subset / kill rate k[0-56] (SE), lungs, Type III (TIII) subset / kill rate k[28-56] (SE), lungs, Type III (TIII) subset: TIII lesions; for kill rate k[0-28] (SE), lungs: day 0 to 28; for kill rate k[0-56] (SE), lungs: day 0 to 56; for kill rate k[28-56] (SE), lungs: day 28 to 56
Mtb Erdman [5] = test: Efficacy in spleens of Mtb Erdman-infected C3HeB/FeJ mice (CFU, kill rates); assay type: in vivo, Mycobacterium tuberculosis; conditions: for kill rate k[0-28] (SE), spleens: day 0 to 28; for kill rate k[0-56] (SE), spleens: day 0 to 56; for kill rate k[28-56] (SE), spleens: day 28 to 56
[6] = system: Mtb Erdman-infected C3HeB/FeJ mice; test: Pulmonary histopathology (pathologist scores and LIRA) in C3HeB/FeJ mice; assay type: in vivo, mouse
[7] = C3HeB/FeJ, mouse, in vivo, 1 h
[8] = system: intracellular mycobacteria in macrophages; parameters: method as in PMID 19299584; conditions: cited from earlier work
[9] = system: non-growing streptomycin-dependent Mtb strain 18b; parameters: method as in PMID 20679505; conditions: cited from earlier work
[10] = human; cited from earlier work
[11] = Plasma and lesion drug levels by LCM-LC/MS-MS in C3HeB/FeJ mice; conditions: 100 mg/kg
Mtb Erdman [12] = test: Broth microdilution MIC (Alamar Blue endpoint), with and without 4% huSA (serum-shift assay); conditions: for shift in MIC in the presence of huSA: physiologic levels (4%) of huSA
[13] = system: non-replicating Mtb in rabbit caseum; parameters: method as in PMID 34370580; conditions: similarly reported previously; cited from earlier work
Mtb = system: Mtb; parameters: method as in PMID 34370580; conditions: C3HeB/FeJ mice, 8 weeks (5 of 7 days per week), cited from earlier work
[14] = 50 mg/kg QD, 8 weeks of treatment
[15] = 200 mg/kg QD, 8 weeks of treatment
[16] = 200 mg/kg QD, 8 weeks, group average
[17] = 200 mg/kg QD, 8 weeks, mice Mx I to Mx L
[18] = Mycobacterium tuberculosis, ERDMAN
[19] = Mycobacterium tuberculosis, ERDMAN, read-out: MIC + huSA

## C[C@H]1COC2(CCN(c3nc(=O)c4cc(C(F)(F)F)cc([N+](=O)[O-])c4s3)CC2)O1 [BTZ-043]
Mtb Erdman [1]
  sqMBC: 0.016 µg/mL
  sqMBC + huSA: 0.03 µg/mL
Mtb Erdman [2]
  kill kinetics (cidality): cidality
[3]
  activity against non-replicating Mtb in rabbit caseum MBC assay: lacked appreciable activity
Mtb Erdman [4]; [14]
  lung CFU reduction from the start of treatment: ~ 1.04 log10 CFU
  lung CFU reduction versus untreated: ~ 2.43 log10 CFU
Mtb Erdman [4]; 50 mg/kg QD
  kill rate k[0-28] (SE), lungs, Type I (TI) subset: 0.011 (0.010) log10CFU per day
  kill rate k[0-56] (SE), lungs, Type I (TI) subset: 0.023 (0.008) log10CFU per day
  kill rate k[28-56] (SE), lungs, Type I (TI) subset: 0.032 (0.015) log10CFU per day
  kill rate k[0-28] (SE), lungs, Type III (TIII) subset: 0.063 (0.007) log10CFU per day
  kill rate k[0-56] (SE), lungs, Type III (TIII) subset: 0.039 (0.007) log10CFU per day
  kill rate k[28-56] (SE), lungs, Type III (TIII) subset: 0.005 (0.010) log10CFU per day
  kill rate k[0-28] (SE), lungs: 0.022 log10CFU per day and 0.022 (0.018) log10CFU per day
  kill rate k[0-56] (SE), lungs: 0.019 (0.009) log10CFU per day
  kill rate k[28-56] (SE), lungs: 0.015 log10CFU per day and 0.015 (0.021) log10CFU per day
Mtb Erdman [4]; 100 mg/kg QD
  kill rate k[0-28] (SE), lungs, Type I (TI) subset: 0.011 (0.011) log10CFU per day
  kill rate k[0-56] (SE), lungs, Type I (TI) subset: 0.047 (0.011) log10CFU per day
  kill rate k[28-56] (SE), lungs, Type I (TI) subset: 0.078 (0.017) log10CFU per day
  kill rate k[0-28] (SE), lungs, Type III (TIII) subset: 0.041 (0.007) log10CFU per day
  kill rate k[0-56] (SE), lungs, Type III (TIII) subset: 0.022 (0.005) log10CFU per day
  kill rate k[28-56] (SE), lungs, Type III (TIII) subset: 0.003 (0.015) log10CFU per day
  kill rate k[0-28] (SE), lungs: 0.006 log10CFU per day and 0.006 (0.013) log10CFU per day
  kill rate k[0-56] (SE), lungs: 0.031 (0.007) log10CFU per day
  kill rate k[28-56] (SE), lungs: 0.056 log10CFU per day and 0.056 (0.015) log10CFU per day
Mtb Erdman [4]; [15]
  lung CFU reduction from the start of treatment: ~ 2.59 log10 CFU
  lung CFU reduction versus untreated: ~ 3.98 log10 CFU
Mtb Erdman [4]; 200 mg/kg QD
  kill rate k[0-28] (SE), lungs, Type I (TI) subset: 0.023 (0.011) log10CFU per day
  kill rate k[0-56] (SE), lungs, Type I (TI) subset: 0.042 (0.009) log10CFU per day
  kill rate k[28-56] (SE), lungs, Type I (TI) subset: 0.062 (0.014) log10CFU per day
  kill rate k[0-28] (SE), lungs, Type III (TIII) subset: 0.019 (0.009) log10CFU per day
  kill rate k[0-56] (SE), lungs, Type III (TIII) subset: 0.049 (0.005) log10CFU per day
  kill rate k[28-56] (SE), lungs, Type III (TIII) subset: 0.079 (0.015) log10CFU per day
  kill rate k[0-28] (SE), lungs: 0.005 log10CFU per day and 0.005 (0.010) log10CFU per day
  kill rate k[0-56] (SE), lungs: 0.046 (0.008) log10CFU per day
  kill rate k[28-56] (SE), lungs: 0.087 log10CFU per day and 0.087 (0.013) log10CFU per day
Mtb Erdman [4]; 4 weeks of treatment, all dose groups (50, 100, 200 mg/kg), Dunnett's P = 0.002 to 0.03
  effect on lung bacterial load: statistically significant reductions
Mtb Erdman [4]; 8 weeks of treatment, all dose groups, Dunnett's P < 0.0001
  effect on lung bacterial load: statistically significant reduction
Mtb Erdman [5]; 50 mg/kg QD
  kill rate k[0-28] (SE), spleens: 0.048 (0.006) log10CFU per day
  kill rate k[0-56] (SE), spleens: 0.026 (0.004) log10CFU per day
  kill rate k[28-56] (SE), spleens: 0.004 (0.007) log10CFU per day
Mtb Erdman [5]; 100 mg/kg QD
  kill rate k[0-28] (SE), spleens: 0.046 (0.006) log10CFU per day
  kill rate k[0-56] (SE), spleens: 0.041 (0.003) log10CFU per day
  kill rate k[28-56] (SE), spleens: 0.036 (0.006) log10CFU per day
Mtb Erdman [5]; 200 mg/kg QD
  kill rate k[0-28] (SE), spleens: 0.057 (0.005) log10CFU per day
  kill rate k[0-56] (SE), spleens: 0.046 (0.003) log10CFU per day
  kill rate k[28-56] (SE), spleens: 0.034 (0.006) log10CFU per day
Mtb Erdman [5]; 200 mg/kg, 8 weeks, limit 1.7 log10 CFU/spleen
  mice with spleen CFU below the lower limit of detection: 4 out of 8
Mtb Erdman [5]; 4 weeks of treatment, all dose groups, Dunnett's P = 0.003 to 0.0001
  effect on spleen bacterial load: statistically significant reductions
Mtb Erdman [5]; 8 weeks of treatment, Dunnett's P < 0.0001
  effect on spleen burdens: statistically significant reductions
[6]; [16]
  percent lung involvement, Healthy Tissue (LIRA), average: 73.70%
  percent lung involvement, Type I - Caseum (LIRA), average: 10% and 10.01%
  percent lung involvement, Type I - Rim (LIRA), average: 4.85%
  percent lung involvement, Type II (LIRA), average: 0%
  percent lung involvement, Type III (LIRA), average: 11% and 11.44%
[6]; [17]
  percent lung involvement, Healthy Tissue (LIRA), individual mice: 90.59% and 66.70% and 47.22% and 90.31%
  percent lung involvement, Type I - Caseum (LIRA), individual mice: 2.82% and 6.51% and 30.69% and 0.00%
  percent lung involvement, Type I - Rim (LIRA), individual mice: 3.75% and 4.76% and 10.89% and 0.00%
  percent lung involvement, Type II (LIRA), individual mice: 0.00%
  percent lung involvement, Type III (LIRA), individual mice: 2.83% and 22.03% and 11.21% and 9.69%
[6]; 200 mg/kg, 8 weeks of treatment, compared to untreated mice
  histology scores by board-certified pathologist: improved overall histology scores
[7]
  drug level in cellular lesion over the serum-shifted MIC: 121 fold
  drug level in lung parenchyma over the serum-shifted MIC: 228 fold
  drug level in plasma over the serum-shifted MIC: 237 fold
[8]
  deduced MIC against intracellular mycobacteria in macrophages: < 10 ng/mL
[9]
  activity against non-growing Mtb strain 18b following depletion of streptomycin: limited activity
[10]
  plasma protein binding: 99.4%
[11]; 2.5 weeks, end of the dosing interval (24 h)
  drug levels in plasma, lung parenchyma, cellular lesion and cellular-caseum interface relative to serum-shifted MIC: fell below the serum-shifted MIC
[11]; 5 of 7 days per week for 2.5 weeks, Tmax (1 h)
  drug level in cellular-caseum interface over the serum-shifted MIC: 93 fold
Mtb Erdman [12]; 4% huSA
  protein binding indicated by serum-shift MIC assay: ~ 75%
Mtb Erdman [12]; M. tuberculosis Erdman, 7H9 media
  MIC: 8 ng/mL
Mtb Erdman [12]; [18]
  MIC: 8 ng/mL
Mtb Erdman [12]; [19]
  MIC: 30 ng/mL

## O=C1CCc2c(OC[C@]3(O)CCN(c4c(F)cc(Cl)cc4F)C[C@H]3O)ccc(F)c2N1 [OPC-167832]
Mtb Erdman [1]
  sqMBC: 0.001 µg/mL
  sqMBC + huSA: 0.016 µg/mL
[13]
  activity against non-replicating Mtb in rabbit caseum MBC assay: lacked appreciable activity
Mtb; 5 and 20 mg/kg QD
  average lung CFU reduction compared to untreated controls: 3 log10
Mtb Erdman [12]; [18]
  MIC: 0.5 ng/mL
Mtb Erdman [12]; [19]
  MIC: 8 ng/mL
Mtb Erdman [12]
  shift in MIC in the presence of huSA: 16 fold

## O=c1nc(N2CCN(CC3CCCCC3)CC2)sc2c([N+](=O)[O-])cc(C(F)(F)F)cc12 [PBTZ169]
Mtb Erdman [1]
  sqMBC: ≤ 0.002 µg/mL
  sqMBC + huSA: 0.016 µg/mL
[13]
  activity against non-replicating Mtb in rabbit caseum MBC assay: lacked appreciable activity
Mtb; 50 and 100 mg/kg QD
  average lung CFU reduction compared to untreated controls: 1.5 log10
Mtb Erdman [12]; [18]
  MIC: ≤ 2 ng/mL
Mtb Erdman [12]; [19]
  MIC: 16 ng/mL
Mtb Erdman [12]
  shift in MIC in the presence of huSA: 8 fold
